# Measured values: patent publication US7750053B2, “Compositions and methods for alleviating hypertension or preventing a rise in blood pressure” (KAO Corporation, priority 2000, dated 2010)
# Marks after values point to notes of the source that are not given here.
# Assays:
# [1] = test system: spontaneously hypertensive rats (SHR); experiment: Evaluation of blood pressure reduction (single administration, systolic blood pressure of the caudal artery); type: in vivo, rat; settings: male 15 week-old SHR, fasted overnight, solution in physiological saline (0.2% actives in total), 1 mL/kg, mean ± SD, n=5; for Systolic blood pressure (changing ratio %) after 10 minutes: 10 minutes after administration vs prior to administration; for Systolic blood pressure (changing ratio %) After 1 hour: 1 hour after administration vs prior to administration
# Procedure: Prior to initiation of the experimental studies in order to accustom the test animals to sphygmomanometric operation the blood pressure of each test animal—male, 15 week-old, spontaneously hypertensive rats (“SHR”)—was preliminarily measured for 7 successive days using a commercially available noninvasive sphygmomanometer for rats (manufactured by Softlon Co., Ltd.).
# Rats were all bred in a breeding room in a rat region under uniform conditions at a room temperature at 25±1° C., humidity of 55±10% RH and illumination for 12 hours (from 7:00 am to 7:00 pm).
# In the control group (Control Plot, see Table 1), physiological saline was employed. As a material to be administered, a solution obtained by dissolving 0.2 wt. % (which will hereinafter be simply described as %) of caffeic acid in physiological saline, a solution obtained by dissolving 0.2% of a chlorogenic acid in physiological saline, a solution obtained by dissolving 0.2% of ferulic acid in physiological saline and a solution obtained by dissolving 0.1% of caffeic acid and 0.1% of ferulic acid in physiological saline were used in Test plot 1, Test plot 2, Test plot 3 and Test plot 4, respectively. In Test plot 5, a solution obtained by dissolving 0.1% of a chlorogenic acid and 0.1% of ferulic acid in physiological saline was used, while in Test plot 6, a solution obtained by dissolving 0.05% of caffeic acid, 0.05% of a chlorogenic acid and 0.1% of ferulic acid in physiological saline was used. Each of them was administered from the common carotid artery. The dosage was 1 mL/kg.
# SHRs were fasted overnight and employed for each test group, each group consisted of 5 rats. Systolic blood pressures of the caudal artery prior to intravenous administration, and 10 minutes and 1 hour each after administration were measured.
# In Table 1, the changing ratio (%) in systolic blood pressure for each experimental group is reported by its mean value (%) and by its standard deviation. The Student's t-test was used to indicate the statistical significance of the experimental data. A significance level of 5% or less is indicated as “*” in Table 1, and significance level of 0.1% or less as “***”.
# A lowering ratio of the systolic blood pressure of each of 10 minutes and 1 hour after administration to the systolic blood pressure prior to administration is shown in Table 1.
# [2] = biological target: angiotensin I converting enzyme (ACE) (Homo sapiens, UniProt P12821); settings: polyphenols of unripe Rosaceae fruit juice; JP Kokai Hei 8-259453; cited from earlier work
# Sequence of angiotensin I converting enzyme (ACE) (P12821 30-1306, species assumed): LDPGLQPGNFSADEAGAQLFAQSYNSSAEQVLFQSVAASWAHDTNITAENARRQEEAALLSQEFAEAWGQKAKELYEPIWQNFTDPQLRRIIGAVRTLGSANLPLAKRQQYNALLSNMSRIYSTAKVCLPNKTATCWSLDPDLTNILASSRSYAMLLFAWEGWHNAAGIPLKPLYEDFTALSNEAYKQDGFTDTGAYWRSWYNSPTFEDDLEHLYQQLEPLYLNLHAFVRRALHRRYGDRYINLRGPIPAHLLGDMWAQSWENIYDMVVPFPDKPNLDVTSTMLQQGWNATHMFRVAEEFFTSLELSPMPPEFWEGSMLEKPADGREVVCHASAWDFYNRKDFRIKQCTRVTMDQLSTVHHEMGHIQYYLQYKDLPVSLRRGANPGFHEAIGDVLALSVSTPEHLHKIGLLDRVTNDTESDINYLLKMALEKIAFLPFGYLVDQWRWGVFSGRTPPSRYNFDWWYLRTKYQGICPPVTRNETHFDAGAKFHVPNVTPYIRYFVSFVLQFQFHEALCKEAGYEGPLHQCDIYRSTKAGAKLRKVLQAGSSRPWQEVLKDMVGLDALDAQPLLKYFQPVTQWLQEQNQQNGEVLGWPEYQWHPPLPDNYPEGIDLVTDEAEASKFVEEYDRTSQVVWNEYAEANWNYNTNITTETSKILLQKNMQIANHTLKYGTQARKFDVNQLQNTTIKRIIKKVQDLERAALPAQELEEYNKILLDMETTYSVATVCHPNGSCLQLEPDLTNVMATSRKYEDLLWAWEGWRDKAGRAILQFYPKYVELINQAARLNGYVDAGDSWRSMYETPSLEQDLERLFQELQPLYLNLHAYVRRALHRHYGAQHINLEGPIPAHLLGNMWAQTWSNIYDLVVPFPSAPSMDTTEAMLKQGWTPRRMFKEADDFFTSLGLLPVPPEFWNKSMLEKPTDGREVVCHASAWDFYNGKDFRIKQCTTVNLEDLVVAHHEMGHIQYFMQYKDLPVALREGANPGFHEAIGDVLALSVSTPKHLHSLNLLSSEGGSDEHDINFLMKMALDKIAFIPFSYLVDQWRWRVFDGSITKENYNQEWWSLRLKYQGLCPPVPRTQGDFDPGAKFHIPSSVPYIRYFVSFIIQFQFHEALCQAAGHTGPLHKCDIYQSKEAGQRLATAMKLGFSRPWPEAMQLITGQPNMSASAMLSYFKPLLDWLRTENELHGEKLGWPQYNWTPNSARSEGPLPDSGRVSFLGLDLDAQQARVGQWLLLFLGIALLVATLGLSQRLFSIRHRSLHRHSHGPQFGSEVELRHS
# calcium = settings: from spike of Schizonepeta tenuifolia Briq.; JP Kokai Hei 4-243822; cited from earlier work
SMILES,Systolic blood pressure (changing ratio %) after 10 minutes [1],Systolic blood pressure (changing ratio %) After 1 hour [1],angiotensin I converting enzyme (ACE) inhibitory action (in words) [2],calcium antagonism (in words) (calcium)
"O=C(O)/C=C/c1ccc(O)c(O)c1 [Caffeic acid (CA), caffeic acid]",−4.1 ± 2.1%,−10.2 ± 0.5*** %,inhibitory action,exerts calcium antagonism
"COc1cc(/C=C/C(=O)O)ccc1O [Ferulic acid (FA), ferulic acid]",−7.8 ± 0.8*** %,0.7 ± 2.6%,,
"O=C(/C=C/c1ccc(O)c(O)c1)O[C@@H]1C[C@](O)(C(=O)O)C[C@@H](O)[C@H]1O [Chlorogenic acid (CHA), chlorogenic acid]",−3.2 ± 2.6%,−7.2 ± 1.7* %,inhibitory action,
